Test results: PubChem BioAssay AID1963854 (Molecular Pharmacology Branch, DTP, NCI, 2024)
Where “and” joins values, the source holds several entries; their conditions need not be identical. Equal entries are not always repeated.

System: 186277-243-T-J2-PDC complex spheroid viability
Test: Anticancer human tumor 186277-243-T-J2-PDC patient-derived colon adenocarcinoma cell line growth inhibition [POLQ]
Details: for viability, T/C: stronger effect = lower value
Description: Multicellular complex tumor spheroid response to Polymerase (POL) inhibitors (novobiocin, ART-558, RP6685) in combination with a variety of drugs and investigational agents in selected tumor cell lines
The POL inhibitors (novobiocin, ART-558, and RP6685) were evaluated both individually and in combination with standard of care and investigational anticancer small molecules within a complex spheroid model of solid tumors. . Complex spheroids include a stromal component modeled by human endothelial cells (HUVEC) and fibroblasts modeled by human mesenchymal stem cells (MSCs). The concentration ranges selected for each drug and investigational agent were based upon clinically achievable concentrations if the clinical Cmax of the agent was known.
Compounds. The drugs and investigational agents: novobiocin (NSC847541), ART-558 (NSC835418), RP-6685 (NSC848927), peposertib (NSC802822), ceralasertib (NSC780249), elimusertib (NSC800525), camonsertib (NSC841442), AZD-1390 (NSC803789), olaparib (NSC753686), talazoparib (NSC767125), rucaparib (NSC756644), sotorasib (NSC818433), MRTX-1133 (NSC836407), SN-38 (NSC673596), topotecan (NSC609699), epotoside (NSC141540), doxorubicin (NSC123127), gemcitabine (NSC613327), 5-fluorouracil (NSC19893), paclitaxel (NSC125973), vemurafenib (NSC761431), MSA-2 (NSC828583), SN-011 (NSC837082), adavosertib (NSC754352), prexasertib (NSC758257), carboplatin (NSC241240) and oxaliplatin (NSC266046), were obtained from the National Cancer Institute (NCI) Developmental Therapeutics Program Chemical Repository (21). The FDA-approved anticancer drug set is available from the Developmental Therapeutics Program at https://dtp.cancer.gov/organization/dscb/obtaining/. […] The stock solutions were prepared in dimethyl sulfoxide (DMSO, Sigma-Aldrich, St. Louis, MO, cat. D2650), except for the platinum compounds which were prepared in saline (Quality Biological, Gaithersburg, MD, cat. 114-055-101), at 800-fold the tested concentration and stored at -70 degrees C prior to their use. All drugs and investigational agents were tested over a range starting from a high concentration at or near the clinical Cmax and decreasing in half-log increments. If the clinical Cmax for an agent had not been determined, the highest concentration tested was 10 microM, except for SN-38, which was tested at a high concentration of 1 microM.
Cell Culture. All cells were maintained in an incubator at 37 degrees C and 5% CO2 with 95% humidity. The PDC lines were cultured according to standard operating procedures established by the NCI PDMR (https://pdmr.cancer.gov). Table 3 of the manuscript, lists the cell lines along with the number of the three cell types plated to form the mct-spheroids and media for tumor cell growth. After thawing, all PDC lines, except 997537-175-T-J1-PDC and 415267-285-R-J2-PDC, were cultured in Matrigel-coated flasks prepared with a working solution of 1X Ham's F-12 nutrient mix, without supplementation (Thermo Fisher Scientific, cat. 11765054), 100 U/mL penicillin-streptomycin (Thermo Fisher Scientific, cat. 15140122), and 2.5% Matrigel (Corning Inc., Corning, NY, cat. 354248) for the first three passages. The two PDC lines 997537-175-T-J1-PDC and 415267-285-R-J2-PDC were cultured on uncoated flasks. The 857933-349-R-J2-PDC line was cultured in 6C/Colon 1B media containing advanced DMEM/F-12 (Thermo Fisher Scientific, cat. 12634028), 10 mM HEPES (Thermo Fisher Scientific, cat. 15630080), 1X GlutaMAX supplement (Thermo Fisher Scientific, cat. 35050061), 0.1 mg/mL primocin (InvivoGen, San Diego, CA, cat. ant-pm-2), 10% defined fetal bovine serum, heat inactivated (HyClone Laboratories Inc., Logan, UT, cat. SH30070.03HI), 50% L-WRN conditioned media (ATCC, cat. CRL-3276), 1.25 mM N-Acetyl-L-cysteine (Sigma-Aldrich, cat. A9165), 10 mM nicotinamide (Sigma-Aldrich, cat. N0636), 1X B-27 supplement (Thermo Fisher Scientific, cat. 17504044), 1X N-2 supplement (Thermo Fisher Scientific, cat. […]

[1] = curve of first compound, second compound 0.0316 µM
[2] = curve of first compound, second compound 0.1 µM
[3] = curve of first compound, second compound 0.316 µM
[4] = curve of first compound, second compound 1 µM
[5] = curve of first compound, second compound 3.16 µM
[6] = curve of first compound, second compound 10 µM
[7] = second compound 0.0316 µM, first compound 0.00316 µM
[8] = second compound 0.0316 µM, first compound 0.01 µM
[9] = second compound 0.0316 µM, first compound 0.0316 µM
[10] = second compound 0.0316 µM, first compound 0.1 µM
[11] = second compound 0.1 µM, first compound 0.00316 µM
[12] = second compound 0.1 µM, first compound 0.01 µM
[13] = second compound 0.1 µM, first compound 0.0316 µM
[14] = second compound 0.1 µM, first compound 0.1 µM
[15] = second compound 0.316 µM, first compound 0.00316 µM
[16] = second compound 0.316 µM, first compound 0.01 µM
[17] = second compound 0.316 µM, first compound 0.0316 µM
[18] = second compound 0.316 µM, first compound 0.1 µM
[19] = second compound 1 µM, first compound 0.00316 µM
[20] = second compound 1 µM, first compound 0.01 µM
[21] = second compound 1 µM, first compound 0.0316 µM
[22] = second compound 1 µM, first compound 0.1 µM
[23] = second compound 3.16 µM, first compound 0.00316 µM
[24] = second compound 3.16 µM, first compound 0.01 µM
[25] = second compound 3.16 µM, first compound 0.0316 µM
[26] = second compound 3.16 µM, first compound 0.1 µM
[27] = second compound 10 µM, first compound 0.00316 µM
[28] = second compound 10 µM, first compound 0.01 µM
[29] = second compound 10 µM, first compound 0.0316 µM
[30] = second compound 10 µM, first compound 0.1 µM
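Note: spheroids exposed to compounds for seven days.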
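Throughout, for viability, T/C: 100% = DMSO vehicle control viability.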

Q: With `CC[C@@]1(O)C(=O)OCc2c1cc1n(c2=O)Cc2cc3c(CN(C)C)c(O)ccc3nc2-1` + Nc1ccc(C#CCN(C(=O)Cc2ncc(C(F)(F)F)cc2C(F)(F)F)c2ccc(F)cc2)nn1 as the compound, how does the IC50 [1] read?
A: > 100 nM

Q: What about the IC50 [2] of the same compound?
A: > 100 nM

Q: And the IC50 [3]?
A: > 100 nM

Q: What about the IC50 [4] of the same compound?
A: > 100 nM

Q: What about the IC50 [5] of the same compound?
A: > 100 nM

Q: What about the IC50 [6] of the same compound?
A: > 100 nM

Q: What about the viability, T/C (second compound 0.0316 µM, first compound 0.000316 µM) of the same compound?
A: 114%

Q: What about the viability, T/C (second compound 0.0316 µM, first compound 0.001 µM) of the same compound?
A: 98%

Q: And the viability, T/C [7]?
A: 123%

Q: What about the viability, T/C [8] of the same compound?
A: 114%

Q: And the viability, T/C [9]?
A: 136%

Q: What about the viability, T/C [10] of the same compound?
A: 91.7%

Q: And the viability, T/C (second compound 0.1 µM, first compound 0.000316 µM)?
A: 109%

Q: And the viability, T/C (second compound 0.1 µM, first compound 0.001 µM)?
A: 93.8%

Q: What about the viability, T/C [11] of the same compound?
A: 90.6%

Q: What about the viability, T/C [12] of the same compound?
A: 129%

Q: And the viability, T/C [13]?
A: 128%

Q: What about the viability, T/C [14] of the same compound?
A: 88.1%

Q: What about the viability, T/C (second compound 0.316 µM, first compound 0.000316 µM) of the same compound?
A: 92.9%

Q: What about the viability, T/C (second compound 0.316 µM, first compound 0.001 µM) of the same compound?
A: 87.2%

Q: And the viability, T/C [15]?
A: 108%

Q: What about the viability, T/C [16] of the same compound?
A: 133%

Q: And the viability, T/C [17]?
A: 124%

Q: What about the viability, T/C [18] of the same compound?
A: 83.8%

Q: What about the viability, T/C (second compound 1 µM, first compound 0.000316 µM) of the same compound?
A: 97.3%

Q: What about the viability, T/C (second compound 1 µM, first compound 0.001 µM) of the same compound?
A: 105%

Q: What about the viability, T/C [19] of the same compound?
A: 117%

Q: What about the viability, T/C [20] of the same compound?
A: 115%

Q: And the viability, T/C [21]?
A: 130%

Q: What about the viability, T/C [22] of the same compound?
A: 81.1%

Q: What about the viability, T/C (second compound 3.16 µM, first compound 0.000316 µM) of the same compound?
A: 89.2%

Q: What about the viability, T/C (second compound 3.16 µM, first compound 0.001 µM) of the same compound?
A: 91.5%

Q: What about the viability, T/C [23] of the same compound?
A: 104%

Q: What about the viability, T/C [24] of the same compound?
A: 122%

Q: And the viability, T/C [25]?
A: 124%

Q: What about the viability, T/C [26] of the same compound?
A: 79.9%

Q: And the viability, T/C (second compound 10 µM, first compound 0.000316 µM)?
A: 111%

Q: What about the viability, T/C (second compound 10 µM, first compound 0.001 µM) of the same compound?
A: 89.7%

Q: And the viability, T/C [27]?
A: 116%

Q: And the viability, T/C [28]?
A: 121%

Q: And the viability, T/C [29]?
A: 107%

Q: What about the viability, T/C [30] of the same compound?
A: 70.6%

Q: `C#Cc1c(F)ccc2cc(O)cc(-c3ncc4c(N5CC6CCC(C5)N6)nc(OCC56CCCN5CC(F)C6)nc4c3F)c12` (stereo unspecified) was tested. Which viability, T/C (compound 0.0316 µM) did it give?
A: 85.1% and 95.6% and 68.7%

Q: What about the viability, T/C (compound 0.1 µM) of the same compound?
A: 53.8% and 92.9% and 36.9%

Q: What about the viability, T/C (compound 0.316 µM) of the same compound?
A: 20.1% and 56% and 19.9%

Q: And the viability, T/C (compound 1 µM)?
A: 12% and 28% and 9.47%

Q: What about the viability, T/C (compound 3.16 µM) of the same compound?
A: 7.06% and 18.8% and 5.67%

Q: What about the viability, T/C (compound 10 µM) of the same compound?
A: 5.14% and 11.6% and 4.6%

Q: What about the IC50 (curve of compound) of the same compound?
A: 113 nM and 427 nM and 62.6 nM

Q: What does the source list for `C=CCn1c(=O)c2cnc(Nc3ccc(N4CCN(C)CC4)cc3)nc2n1-c1cccc(C(C)(C)O)n1` + COC1C(OC(N)=O)C(O)C(Oc2ccc3c(O)c(NC(=O)c4ccc(O)c(CC=C(C)C)c4)c(=O)oc3c2C)OC1(C)C?
A: IC50 [1]: 189 nM; IC50 [2]: 185 nM; IC50 [3]: 190 nM; IC50 [4]: 182 nM; IC50 [5]: 177 nM; IC50 [6]: 178 nM; viability, T/C [7]: 100%; viability, T/C [8]: 88.2%; viability, T/C [9]: 109%; viability, T/C [10]: 93.4%; viability, T/C (second compound 0.0316 µM, first compound 0.316 µM): 14.8%; viability, T/C (second compound 0.0316 µM, first compound 1 µM): 7.82%; viability, T/C [11]: 83.8%; viability, T/C [12]: 97.8%; viability, T/C [13]: 107%; viability, T/C [14]: 91.3%; viability, T/C (second compound 0.1 µM, first compound 0.316 µM): 13.7%; viability, T/C (second compound 0.1 µM, first compound 1 µM): 7.76%; viability, T/C [15]: 93.4%; viability, T/C [16]: 87.7%; viability, T/C [17]: 99.2%; viability, T/C [18]: 100%; viability, T/C (second compound 0.316 µM, first compound 0.316 µM): 14.1%; viability, T/C (second compound 0.316 µM, first compound 1 µM): 8.59%; viability, T/C [19]: 103%; viability, T/C [20]: 104%; viability, T/C [21]: 104%; viability, T/C [22]: 91.8%; viability, T/C (second compound 1 µM, first compound 0.316 µM): 11.1%; viability, T/C (second compound 1 µM, first compound 1 µM): 8.27%; viability, T/C [23]: 104%; viability, T/C [24]: 96.2%; viability, T/C [25]: 109%; viability, T/C [26]: 85.8%; viability, T/C (second compound 3.16 µM, first compound 0.316 µM): 13.5%; viability, T/C (second compound 3.16 µM, first compound 1 µM): 7.48%; viability, T/C [27]: 104%; viability, T/C [28]: 110%; viability, T/C [29]: 95.2%; viability, T/C [30]: 87.6%; viability, T/C (second compound 10 µM, first compound 0.316 µM): 12%; viability, T/C (second compound 10 µM, first compound 1 µM): 7.75%
